From ChEMBL document CHEMBL1148562, “Synthesis and biological evaluation of novel pyrrolo[2,1-c][1,4]benzodiazepine prodrugs for use in antibody-directed enzyme prodrug therapy” (Bioorg Med Chem Lett, 2006) come the findings set out here.

Data set [1] concerns LS174T. As to the kind of experiment: Cytotoxicity against LS174T human colon cell line after 1 hour of exposure. Format: functional, cell-based.
Data set [2] relates to LS174T. As to the kind of experiment: Cytotoxicity against LS174T human colon cell line after continuous exposure. The data set is classed as functional, cell-based.
Data set [3] in a line: Conversion of prodrug to parent in distilled water at 37 degC for 24 hrs. The data set is classed as ADME. The conditions noted are these: buffer.
Data set [4] is described as follows: Conversion of prodrug to parent in distilled water at room temperature for 24 hrs. The conditions noted are these: buffer. The data set is classed as ADME.

Molecules are shown by their SMILES.

Regarding `COc1cc2c(cc1OC)N(C(=O)OCc1ccc(NC(=O)N[C@@H](CCC(=O)O)C(=O)O)cc1)[C@@H](O)[C@@H]1CCCN1C2=O`, the IC50 in the data set on LS174T [1] is 28000 nM; in the data set with LS174T [2], 1600 nM. Further, the result in data set [3] and in data set [4] was Active.

As for `COc1cc2c(cc1OCCCOc1cc3c(cc1OC)C(=O)N1CCC[C@H]1[C@H](O)N3C(=O)OCc1ccc(OC(=O)N[C@@H](CCC(=O)O)C(=O)O)cc1)N(C(=O)OCc1ccc(OC(=O)N[C@@H](CCC(=O)O)C(=O)O)cc1)[C@@H](O)[C@@H]1CCCN1C2=O`, the IC50 with LS174T [1] was found to be 200 nM; in the data set with LS174T [2] it was 21 nM. The Activity in data set [3] was found to be 3%. The Stability result in data set [4] is given as “Stable”.

`COc1cc2c(cc1OCCCOc1cc3c(cc1OC)C(=O)N1CCC[C@H]1C=N3)N=C[C@@H]1CCCN1C2=O` [DSB-120]: the half-inhibitory concentration (IC50) with LS174T [1] turned out to be 13 nM; in the data set on LS174T [2] it was 0.47 nM.

In the case of `COc1cc2c(cc1OCCCOc1cc3c(cc1OC)C(=O)N1CCC[C@H]1[C@H](O)N3C(=O)OCc1ccc(NC(=O)N[C@@H](CCC(=O)O)C(=O)O)cc1)N(C(=O)OCc1ccc(NC(=O)N[C@@H](CCC(=O)O)C(=O)O)cc1)[C@@H](O)[C@@H]1CCCN1C2=O`, the IC50 with LS174T [1] turned out to be 6 nM; with LS174T [2], 0.8 nM. Further, the outcome in data set [3] and in data set [4] was Active.

Turning to `COc1cc2c(cc1OC)N(C(=O)OCc1ccc(OC(=O)N[C@@H](CCC(=O)O)C(=O)O)cc1)[C@@H](O)[C@@H]1CCCN1C2=O`, the IC50 with LS174T [1] was more than 100000 nM; in the data set with LS174T [2], 20000 nM. In data set [3], the Activity was determined as 7%. Moreover, the Stability result in data set [4] was “Stable”.

As for `COc1cc2c(cc1OC)C(=O)N1CCC[C@H]1C=N2`, the IC50 is 14000 nM in the data set on LS174T [1] and 1400 nM in the data set on LS174T [2].
